Experiments:
[1] = Metabolism in human liver microsomes; assay type: in vitro ADME; settings: 1 μM substrate, NADPH
Description: (§1) Following the protocols described by Charman et al.,[28]1 was incubated at 37 °C with human, rat, and rhesus monkey liver microsomes. For the determination of intrinsic clearance, the substrate concentration was 1 μM and the protein concentration was 0.4 mg/mL; for qualitative metabolite identification studies, the substrate and protein concentrations were 10 μM and 1 mg/mL, respectively. The reaction was initiated by the addition of an NADPH-regenerating buffer system, and the samples were incubated for up to 60 (for Clint determination) or 180 min (for additional metabolite identification). Samples without the test compound and without NADPH were also incubated and used as controls. The reaction was quenched by protein precipitation with the addition of an equal volume of ice-cold acetonitrile solution (containing diazepam as an internal standard), followed by vortexing and centrifugation for 3 min at 10000 rpm. The supernatant was removed and analyzed by LC/MS. LC/MS analysis was conducted using a Waters Micromass Xevo G2 QTOF MS coupled to a Waters Acquity UPLC. For metabolite identification, a Supelco Ascentis Express Amide column (50 × 2.1 mm, 2.7 μm) was used with an acetonitrile–water gradient (containing 0.05% formic acid), a flow rate of 0.4 mL/min, a gradient cycle time of 6 min, and an injection volume of 5 μL. MS analysis was conducted using positive mode electrospray ionization under MSE acquisition mode, which allows simultaneous acquisition of MS spectra at low and high collision energies. The identity of putative metabolites was confirmed by the accurate mass and a comparison of the retention times and MS/MS fragmentation patterns with authentic metabolites where available. For metabolite quantitation, the method described below for the analysis of plasma samples was used.

[2] = Metabolism in rat liver microsomes; assay type: in vitro ADME; settings: 1 μM substrate, NADPH
Description: as §1

[3] = system: P. vivax liver-stage parasites; assay: P. vivax liver-stage in vitro assay, prophylactic mode; assay type: cell-based, Plasmodium vivax; settings: 20 μM, two independent runs, threshold for activity 75% inhibition
Description: Compound 1 and its metabolites were tested in both prophylactic and radical cure modes for activity against P. vivax liver-stage parasites.[16],[17] In the prophylactic assay, compounds are added the day after sporozoite invasion into hepatocytes in order to characterize the compound activity against established liver forms with a parasitophorous vacuole membrane (as opposed to activity on preinvasion sporozoites) and prior to complete maturation of hypnozoites into drug-insensitive dormant forms, which appear at about 5 days postinvasion.[18] In the radical cure assay, compounds are added at day 5 postinfection to characterize activity against late-stage schizonts and mature PI4K inhibitor-insensitive hypnozoites.[19] In these experiments, the threshold for activity is 75% inhibition. […] Similarly, as previously described,[20] 10 μM concentrations of 1 and its metabolites were also tested for activity against P. cynomolgi schizont (large forms) and hypnozoite (small forms) liver-stage parasites cultured in rhesus monkey hepatocytes. In these experiments, the threshold for activity is 50% inhibition.
Compounds were prepared as 20 mM stock solutions in DMSO and tested in an eight-point semilog (1/3) dilution series from 20 μM in 384-well assay plates in both prophylactic and radical cure mode against P. vivax liver-stage parasites as previously described.[16] Following ethical approval from the Institutional Ethics Committee of the Thai Ministry of Public Health, the Ethical Review Committee of Faculty of Tropical Medicine, Mahidol University (TMEC 11-008 and 14-016), the Oxford Tropical Medicine Ethical Committee, Oxford University, England (OxTREC 17-11 and 40–14), and the Cambodian National Ethics Committee for Health Research (101NECHR), isolates of P. vivax infected blood were collected from patent volunteers in Tak province, Thailandm and Mondulkiri province, Cambodia. Samples were collected by venipuncture into heparin tubes prior to replacement of patient serum with nonimmune AB human serum and feeding to laboratory-reared Anopheles dirus cracens or An. dirus A mosquitoes via water-jacket artificial membrane feeders or the Hemotek insect feeding system (Hemotek, Blackburn, UK) set to maintain the bloodmeal temperature at 37 °C. […] Cryopreserved human hepatocytes (BioIVT, Baltimore, Maryland, USA) were thawed into InVitroGro CP Medium (BioIVT), quantified for viability by trypan blue dye exclusion, diluted to 800–1000 live cells per microliter, and 18000 live cells were plated into each well of a collagen-coated 384-well plate (Greiner, Monroe, NC, USA) by a 16-channel pipet (Finnpipette, Thermo Fisher Scientific, Waltham, MA). […]

P. vivax = system: P. vivax; set-up: method as in doi:10.1016/0035-9203(74)90194-1; settings: 7-day course at 10 mg/(kg day); cited from earlier work
[4] = 0.4 mg/mL protein, relative to initial substrate concentration

With `CCN(CC)CCN(CCN(CC)CC)c1cc(OC)c(OC)cc1Br` [Compound 1, 4-(2-bromo-4,5-dimethoxyphenyl)-1,1,7,7-tetraethyldiethylenetriamine] the “average substrate depletion over a 60 min incubation” value [1, 4] was <10%, the microsomal CLint at 1 μM ([1]; human, liver microsomes, 0.4 mg/mL microsomal protein, 37 °C, 60 min, average of three replicates, read-out: CLint) was < 3 µL/min/mg and the “average substrate depletion over a 60 min incubation” value [2, 4] was ~90%. The microsomal CLint at 1 μM ([2]; rat, liver microsomes, 0.4 mg/mL microsomal protein, 37 °C, 60 min, average of three replicates, read-out: CLint) was 100 ± 2.6 µL/min/mg, the “activity against schizonts or hypnozoites” value [3] was “no activity” and the “prevention of infections / inhibition of relapses of P. vivax” value (P. vivax) was “did not prevent infections or inhibit relapses”. For the same compound, the tolerability (P. vivax) was “well-tolerated”.

From PMC9016807, “Metabolic, Pharmacokinetic, and Activity Profile of the Liver Stage Antimalarial (RC-12)” (ACS Omega, 2022)
